Reference: a melting point compilation (Tetko et al.; mined from patent text by program, amines drawn as free bases though some values may be those of a salt)

SMILES	melting point [°C]
CC(C)(C)OC(=O)n1cc(C(=O)C=C(O)C2(C(=O)O)C=CC=CC2)c2ccccc21 (centres undefined)	138 to 141
Cc1nc(-c2ccccc2)nc(OCC(=O)N(CC2CC2)c2ccccc2)c1C	119 to 121
Cc1ccc(-c2c(NS(=O)(=O)c3ccc(C(C)(C)C)cc3)nc(NCCOC3CCCCO3)nc2OCCO)cc1 (centres undefined)	113 to 116
CC(=O)CC(=O)NC1CCCCC1	66 to 69
CCCCCCCCC#CCC#CCC#CCCCC(=O)O	69 to 70
O=Cc1cccc(OCCCN2C(=O)c3ccccc3C2=O)c1	102 to 104
Fc1ccc(Cn2c(NC3CCN(CCOc4nc5ccccc5s4)CC3)nc3ccccc32)cc1	147
COc1ccc(C(=O)Nc2c(Cl)cncc2Cl)c2c1OC(C)(C)C=C2	174 to 178
O=c1ccsn1C(O)C(Cl)(Cl)Cl (centres undefined)	117 to 118
COC(=O)[C@H](Cc1ccc(O)cc1)Nc1ccccc1C(=O)c1ccccc1	185 to 186
CCOc1cccc(CC(=O)O)c1OCCn1cc(C(=O)NCc2ccc(Cl)cc2Cl)c(OC(C)C)n1	90 to 91
Cc1cc(C(O)CN2CCC(O)(c3ccc4c(c3)COCC4)CC2)ccc1O (centres undefined)	178
CCc1c(C(=O)NN2CCCCC2)nn(-c2ccc(Cl)cc2Cl)c1-c1ccc(Br)cc1	112 to 115
Cc1nc2c(c(Cl)c1C(=O)NC(=N)N)CCCCC2	210 to 212
CC(C)Cn1c(CNC(=O)OC(C)(C)C)c(-c2ccc(Cl)cc2)c2cc(C(N)=O)ccc2c1=O	144 to 146
O=C1c2ccccc2-n2cnc(-c3cccc(Cl)c3)c2[C@@H]2CCCN12	242 to 243
CC1(C)OC(c2ccc(S(C)(=O)=O)cc2)=C(Br)C1=O	196
COc1cc(-c2ccncc2)n[nH]1	140
CC(C)(C#N)c1cc(C(Cl)c2cncnc2)cc(C(C)(C)C#N)c1 (centres undefined)	118 to 121
Cc1cc(Cl)nnc1-c1cccc(C#N)c1	153 to 155

SMILES	melting point [°C]
N#Cc1ccc(N2C(=O)N(CCCO)C3(CCOCC3)C2=O)cc1C(F)(F)F	155 to 156
COC(Cn1cncn1)(OC)c1ccc(Cl)cc1Cl	87.7
O=C(C=Cc1ccc(CNC2CCCCC2)cc1)Nc1ccc(-c2ccc(Cl)cc2)cc1	247 to 248
Cc1sc(C2=NOC(c3cc(Cl)cc(Cl)c3)(C(F)(F)F)C2)cc1Br (centres undefined)	110 to 112
CCN(c1nc(C)cc(C(=O)N2CCN(C)CC2)n1)c1ccc(C(C)C)cc1Br	81 to 82
O=C1NC(C(=O)NCCO[N+](=O)[O-])C(c2cccs2)O1 (centres undefined)	101 to 103
O=C1CCc2c([nH]c3ccc(Cl)cc23)C1	194 to 196
COc1cc2c3ccc(OC)c(OC)c3n(C(=O)c3cccc([N+](=O)[O-])c3)c2cc1OC	187 to 191
C#CCOc1ccc2c(c1)c(-c1ccc(C(C)C)cc1)nc(=O)n2Cc1cccnc1O	121 to 123
N#Cc1c(N2CCCCC2)cc(-c2ccc(F)cc2)c2c1-c1ccccc1C2	176 to 178
OC[C@H](O)[C@@H](O)CCNCc1ccccc1	117 to 118
CCS(=O)(=O)N(C)[C@@H]1c2cc(C#N)ccc2OCC[C@H]1O (relative stereo)	142 to 144
CCC(C)S(=O)(=O)c1cc(C(F)(F)F)ccc1C(=O)c1cnoc1C1CC1 (centres undefined)	89 to 91
CC(C)(C)C(=O)n1c(=O)n(CCN2CCC(=C(c3ccc(F)cc3)c3ccc(F)cc3)CC2)c(=O)c2cscc21	69 to 72
CC(O)C(CCCc1ccccc1)n1cnc(C(N)=O)c1N (centres undefined)	132
CC(C)Cc1nc2ccc(Br)cc2c(-c2ccccc2)c1CNC(=O)OC(C)(C)C	193 to 194
Fc1cccc(F)c1COc1cccnc1NC(=S)Nc1ccc(Cl)cc1	151 to 154
O=C1C(Cl)=C(c2ccccc2)C(=O)N1c1cccc(Cl)c1	67 to 68
Nc1nn2ccccc2c1N	190
CCCOC(=O)C1=C(C)N(C)C(C)=C(C(=O)OCCC)C1c1ccc(Br)cc1	97 to 99

SMILES	melting point [°C]
CC(NC(=O)NCCCCC1CCSS1)C(=O)O (centres undefined)	131 to 134
CCc1noc(C)c1-c1[nH]c2ccccc2c1CCCCN(C)C	156 to 158
CN1C(=O)CCC1(O)c1ccc(Cl)c(S(=O)(=O)NCc2ccccc2Cl)c1 (centres undefined)	144 to 145
CCCC[C@H](NC(=O)[C@H](CCCCNC(=O)OC(C)(C)C)NC(=O)OCc1ccccc1)C(=O)CSCc1ccco1	60 to 63
CCN(CC)c1ccc2nc3c4ccc(Br)cc4c(=Nc4ccncc4)cc-3oc2c1	269 to 271
COc1ccccc1N1CCN(C[C@H]2COc3ccc4nc(C)ccc4c3O2)CC1	44 to 47
CCCn1c(N)cc(=O)n1-c1ccccc1	183 to 185
CC(C)[C@H](NC(=O)CN)c1nc2c(C(F)(F)F)cccc2c(O)c1C(=O)Nc1nccs1	230
O=C(O)CC(Cc1c[nH]c2ccccc12)C(=O)O (centres undefined)	144 to 145
COc1cc2c(Nc3ccc(Cl)cc3F)ncnc2cc1OCCN1CCS(=O)(=O)CC1	246 to 249
Cc1c(C(=O)c2cnn(C)c2OCc2ccccc2)ccc(S(C)(=O)=O)c1C1=NOCC1	152 to 153
O=C(O)CNC(=O)C(CSC(=O)c1ccccc1)SC(=O)c1ccccc1 (centres undefined)	160 to 163
CN=C(NC#N)NCC(O)COc1cccc(CN2CCCCC2)c1 (centres undefined)	45 to 47
CCOC(=O)c1nc(C2CCCCC2)n(-c2cccc(Cl)c2F)c1Br	150 to 152
OCc1cn(Cc2ccc(OCc3ccccc3)cc2)nc1OCc1ccc(OCc2ccccc2)cc1	128 to 129
COc1ccc(Cc2cc(C3CCCN(C(=O)c4ccc5c(c4)OCO5)C3)nc(N)n2)cc1 (centres undefined)	125 to 127
COc1ccc(-c2c(C(=O)N3CCOCC3)ccc3cc(Cl)ccc23)cc1OC	157 to 159
COc1ccc(C2CC(=O)N(c3c(C)c(C)c4c(c3C)[C@@H](c3ccc(C)cc3)C(C)(C)O4)C(=O)C2)cc1	207 to 209
OC(CCc1ccccc1)Cn1ccnc1 (centres undefined)	106 to 107

The remaining lines, values ahead:

melting point [°C]	SMILES
209 to 211	O=C(Cc1ccc(Cl)cc1)Nc1cccc(-n2nc(C(F)(F)F)cc2C(F)(F)F)c1
101 to 103	Cc1ccc2c(C3CCN(CC#N)CC3)cn(-c3ccc(F)cc3)c2c1
133 to 136	Cc1ccc(Oc2nc3nc(C)cc(C)n3n2)c(C)c1
228 to 233	CC(C)c1c(C(=O)Nc2ccccc2)c(-c2ccccc2)c(-c2ccc(F)cc2)n1CCC(O)CC(O)CC(=O)N(c1ccccc1)c1ccccc1 (centres undefined)
289 to 292	CC(=O)N(c1ccc(N2CCN(C)CC2)cc1)c1ncc2c(n1)S/C(=C/c1cn(C(C)=O)c3ccccc13)C(=O)N2
179	CN(C)C(C)(C)c1ccc(-c2nc(Nc3ccc(F)cc3)ncc2C#N)cc1
142	CCC1CC(=O)N(Cc2cccc(NC(C)=O)c2)N=C1c1ccc(OC)c(OC)c1 (centres undefined)
210 to 213	Ic1ccc(Cc2cc(I)c(Cc3ccc(I)cc3)cc2I)cc1
214 to 217	Cc1cn(-c2cc(C)c(N)c(C#N)c2)c(C)n1
171 to 173	COc1ccc2c(c1)c(N1CCN(C#N)CC1)nn2S(=O)(=O)c1ccccc1
168 to 170	CCOC(=O)NC1CCCCn2c1nc(-c1ccncn1)cc2=O (centres undefined)
186	Nc1cc(=O)n(Cc2cccc(I)c2)[nH]1
186 to 194	CCc1cc(NCc2ccc3oc(-c4ccccc4C#N)c(Br)c3c2)n2nccc2n1
40 to 42	COC(=O)c1cnn(OCCCC2OCCO2)c1
116 to 117	Cc1cc(Oc2c(Cl)cc(C(F)(F)F)cc2Cl)nn1C(=O)NC(C)(C)C
132 to 133	Nc1nsnc1-c1ccc(Cl)cc1
146 to 148	CC(C)N1C(=O)NC(c2ccc3c(c2)CCC3)c2cc3c(cc21)OCO3 (centres undefined)
168 to 169	COCCOc1ccc(/C=C/C(=O)NS(=O)(=O)c2ccccc2Cl)c(Oc2ncc(C(F)(F)F)cc2Cl)c1
113 to 114	COC(=O)Cc1cn(-c2ccccc2)nc1OCc1ccc(OCc2nc(-c3ccccc3)oc2C)cc1
93 to 94	CCCC(=O)c1cn(C)cc(-c2cccc(C(F)(F)F)c2)c1=O

melting point [°C]	SMILES
200 to 206	CN1Cc2c(-c3nc(CCl)co3)ncn2-c2ccsc2C1=O
87 to 90	Cc1ccc(S(=O)(=O)NO[Si](C)(C)C)cc1
190 to 193	CN1CCN(C(=S)Nc2cc3sc(C(C)(C)C)nc3cc2N2CCN(C)CC2)CC1
125 to 127	NS(=O)(=O)c1cccc2cc[nH]c12
141 to 143	CC(C)(C)C1=CCC(C(=O)O)CC1 (centres undefined)
139 to 141	O=C1CC2CCC1C(Nc1ccc(Cl)cc1)C21CCCCC1 (centres undefined)
195 to 197	Cc1cc(=O)n(C)c2nc(-c3ccncc3)nn12
78 to 79	C#CCOc1cccnc1Cl
217 to 219	N#Cc1cccc(-c2ccc3c(c2)C2(CCCC2)C(=O)N3)c1
254	CCc1cc(=O)c(C(N)=O)c(CC)[nH]1
174 to 178	O=S(=O)(NC(Cc1ccc(O)cc1)c1ccccc1)c1ccc(Cl)cc1 (centres undefined)
73 to 75	O=C1OCCN1c1cccc(CCBr)c1
54 to 56	O=C(c1cccc(C(F)(F)F)c1)c1ccc[nH]1
187 to 189	COc1cc(CCC=CC(=O)CCC(=O)O)cc(OC)c1OC
95.5 to 97	CCCOc1ccccc1-c1nc(OCC)cc(=O)[nH]1
58 to 60	Cc1cc(CCCCCCC(OS(=O)(=O)O)c2nnnn2C)on1 (centres undefined)
150 to 152	O=C(c1ccc(Cl)cc1)N1CCC(=Cc2ccc(C3=NCCO3)cc2F)CC1
129	CCOC(=O)C1=C(C)N(CCOC(=O)c2ccccc2)C(=O)NC1c1ccccc1 (centres undefined)
160 to 165	O=C(O)c1cc(-c2ccc3c(c2)CCO3)nn(CC2CC2)c1=O
182 to 183	Cc1noc(NS(=O)(=O)c2ccccc2-c2ccc(Cn3c(=O)oc4ccccc43)cc2)c1C
